Results taken from patent publication US7691387B2, “Cinnamomi and poria composition, method to prepare same and uses thereof” (Jiangsu Kanion Pharmaceutical Co., Ltd, priority 2000, dated 2010).
Read-outs that look alike come from different tables or passages of the source.

Experiments:
[1] = tested on: platelet aggregation of rats; assay: Platelet aggregation experiments of rats; type: in vivo, Wister rats; conditions: 0.1 g/kg once
Experimental: The drug concentration is 0.5 mg/ml. […] The drug concentration is 1 g/ml. […] The drug concentration is 1 g/ml. Experimental process: […] Half an hour after administering the drug on the fifth day, use ether to anaesthetize the rats. […] Administer a 0.1 g/kg aspirin once to the positive control group. Prepare platelet plasma according to the method explained previously. Do the aggregation experiments, and record the conditions of every group.

[2] = tested on: twisting responses of mice induced by acetic acid; assay: Acetic acid twisting experiment; type: in vivo; conditions: positive control, 0.2 g/kg
Experimental: Randomly divide the animals into 5 groups. […] After the drug has been administered on the third day, celio-inject 0.5% acetic acid to the mice in groups. Observe and record the times of twisting of mice within 30 minutes. [formula]

[3] = tested on: extra-corporeal platelet aggregation of rabbits; assay: Extra-corporeal platelet aggregation of rabbit (ADP); type: cell-based; conditions: 0.3 Mg/ml
ear swelling of mice = assay: Croton oil ear swelling of mice; type: in vivo, Kunming mice; conditions: 0.025 g/Kg, three days
Experimental: Preparation of drug: Put 12.5 g of extract of CCP in 100 ml of normal saline, and mix adequately. The drug concentration is […]. Put 25 g of extract of CCP in 100 ml of normal saline, and mix adequately. The drug concentration is 1 g/ml. Put 50 g of extract of CCP in 100 ml of normal saline, and mix adequately. The drug concentration is 2 g/ml. Put 12.5 g of the Bolus of Cinnamomi & Poria in 100 ml of normal saline, and mix adequately. The drug concentration is […]. Put 25 g of extract in 100 ml of normal saline, and mix adequately. The drug concentration is 1 g/ml. Put 50 g of extract in 100 ml of normal saline, and mix adequately. The drug concentration is 2g/ml. Put 0.1 g of Hydrocortisone in 100 ml of normal saline. The drug concentration is 1 mg/ml. Administer all three preparations (a total of seven different solutions) with 10 ml/kg.
Experimental method: According to their weight, randomly divide fifty male mice into eight groups. Administer different doses of the seven solutions mentioned above for three days and for the control group administer the normal saline of the same volume. After three days of administering the drug, besmear […] croton oil on both sides of every mouse's left ear (compare with right ear). […]

[4] = cited from earlier work
tinea germ between toes = conditions: cited from earlier work
[5] = tested on: blood pressure of anaesthetized dog; conditions: mainline 80-120 mg/kg; cited from earlier work
golden staphylococcus = conditions: cited from earlier work
streptococcus faecalis = conditions: cited from earlier work
[6] = tested on: rheumatism, stomachache, other pains, eczema, dermatitis; conditions: cited from earlier work
bacillus subtilis = conditions: cited from earlier work
coliform = conditions: cited from earlier work
[7] = tested on: rats' Whole Blood Ratio Viscosity; assay: Whole Blood Ratio Viscosity of rats; type: in vivo, Wister rats; conditions: 0.2 g/kg, 5 days
Experimental: Drug dispensation: put a 12.5 g extract of CCP in a 100 ml solution of normal saline and mix adequately. The drug concentration is 0.125 g/ml (containing 0.5 g/ml of crude drugs). Put a 25 extract of CCP in 100 ml of normal saline. The drug concentration is 0.25 g/ml (containing […] of crude drugs). Put a 50 extract of CCP in a 100 ml of normal saline and mix adequately. The drug concentration is 0.5 g/ml (containing 2 g/ml crude drugs).
Persantine: put 2 in normal saline and mix adequately. The drug concentration will be 20 mg/ml.
Experimental processing: Randomly divide male Wister rats weighing 250 to 300 g into five groups with eight rats in each group. Low, medium and high dose groups can take the extract of CCP in a concentration of 10 ml/kg. The concentration of crude drugs is 5 g/kg, 10.0 g/kg and 20 g/kg respectively. The control group takes normal saline of the same volume; positive medicine group takes 0.2 g/kg, which is 10 ml/kg of persantine. The drug must be administered once a day for five consecutive days. After an hour and a half of administering the drug on the fifth day, lightly anaesthetize the […] with ether. Record 40 test tubes, and put 0.1 ml heparin in each. Take blood from the abdominal aorta of the […] and fill each tube with 1 ml of blood. Then use XN-5 Type Blood Viscometer to determine the Whole Blood Ratio Viscosity.

CC(=O)Oc1ccccc1C(=O)O [Aspirin, Acetylsalicylic acid]
Aggregation ratio [1]: 26.58 ± 10.58
controlling rate of twisting times [2]: 61.08%
Aggregation(%) [3]: 32.94 ± 1.68 %

C[C@]12CCC(=O)C=C1CC[C@@H]1[C@@H]2[C@@H](O)C[C@@]2(C)[C@H]1CC[C@]2(O)C(=O)CO [Hydrocortisone]
Average swelling degree (ear swelling of mice): 4.68 ± 3.43

COc1ccc(C(C)=O)c(O)c1 [Paeonol, Ethanone, 1-(2-hydroxy-4-methoxyphenyl)-]
solubility in water [4]: resolve a little in water
controlling consistency (tinea germ between toes): 250 µg/mL
duration of reduced pressure [5]: 10 to 12 min
reduce pressure [5]: 41-61%
controlling consistency (golden staphylococcus): 500 µg/mL
controlling consistency (streptococcus faecalis): 500 µg/mL
validity rate ([6]; 261 cases with rheumatoid arthritis, lumbago, bellyache, postoperative & cancer pain): 92%
validity rate ([6]; inject 50˜100 mg, rheumatism, other pains, eczema, dermatitis): 83%
controlling consistency (bacillus subtilis): 200 µg/mL
controlling consistency (coliform): 200 µg/mL

OCCN(CCO)c1nc(N2CCCCC2)c2nc(N(CCO)CCO)nc(N3CCCCC3)c2n1 [Persantine]
Whole Blood Ratio Viscosity, high shear [7]: 12.10 ± 1.90
Whole Blood Ratio Viscosity, low shear [7]: 16.12 ± 6.92
